# Results from ChEMBL document CHEMBL5584314, “Identification of an m6A Natural Inhibitor, Lobeline, That Reverses Lenvatinib Resistance in Hepatocellular Tumors” (J Nat Prod, 2024).
# The source made the active and inactive calls. No cut-off for these calls is given here.
# Legend:
# [1] = tested on: Lenvatinib-resistant Hep3B/Len; experiment: Antiproliferative activity against human Lenvatinib-resistant Hep3B/Len cells assessed as inhibition of clone formation ability at 5 to 10 uM preincubated for 72 hrs and measured after 7 to 10 days by crystal violet staining based assay; type: functional, cell-based; conditions: dose 5-10 µM, time 10-13 day
# [2] = tested on: Lenvatinib-resistant Huh7/Len; experiment: Inhibition of cell migration in human Lenvatinib-resistant Huh7/Len cells at 5 uM incubated for 48 hrs by transwell assay; type: functional, cell-based
# [3] = tested on: Lenvatinib-resistant Huh7/Len; experiment: Inhibition of cell migration in human Lenvatinib-resistant Huh-7/Len cells at 5 uM incubated for 48 hrs in presence of lobeline by transwell assay relative to control; type: functional
# [4] = tested on: Lenvatinib-resistant HCC/Len; experiment: Antitumor activity against human Lenvatinib-resistant HCC/Len cells xenografted in BALB/c nude mouse model of PDX assessed as tumor growth inhibition at 3 mg/kg, IG cotreated with lobeline 5 times per week for 3 weeks; type: functional, organism-based
# [5] = Toxicity in BALB/c nude mouse PDX model xenografted with human Lenvatinib-resistant HCC/Len cells assessed as changes in body weight at 3 mg/kg, IG administered 5 times per week for 3 weeks; type: organism-based; conditions: in vivo, po, 504 h
# [6] = Toxicity in BALB/c nude mouse PDX model xenografted with human Lenvatinib-resistant HCC/Len cells assessed as changes in organ index at 3 mg/kg, IG cotreated with lobeline 5 times per week for 3 weeks administered 5 times per week for 3 weeks; type: organism-based; conditions: in vivo, po, 504 h
# [7] = tested on: Lenvatinib-resistant Huh7/Len; experiment: Antiproliferative activity against human Lenvatinib-resistant Huh7/Len cells assessed as inhibition of clone formation ability at 5 to 10 uM preincubated for 72 hrs and measured after 7 to 10 days in presence of lobeline by crystal violet staining based assay; type: functional, cell-based; conditions: dose 5-10 µM, time 10-13 day
# [8] = tested on: Lenvatinib-resistant HCC/Len; experiment: Antitumor activity against human Lenvatinib-resistant HCC/Len cells xenografted in BALB/c nude mouse model of PDX assessed as reduction in m6A protein expression tumor tissue at 3 mg/kg, IG cotreated with lobeline 5 times per week for 3 weeks by immunohistochemistry analysis; type: functional, organism-based
# [9] = tested on: Lenvatinib-resistant Hep3B/Len; experiment: Antiproliferative activity against human Lenvatinib-resistant Hep3B/Len cells assessed as inhibition of cell viability up to 40 uM after 72 hrs in presence of lobeline by CCK-8 assay; type: functional, cell-based
# [10] = tested on: Lenvatinib-resistant Hep3B/Len; experiment: Inhibition of cell migration in human Lenvatinib-resistant Hep3B/Len cells at 5 uM incubated for 48 hrs by transwell assay; type: functional, cell-based
# [11] = Toxicity in BALB/c nude mouse xenografted with human Lenvatinib-resistant Huh7/Len cells assessed as changes in body weight at 3 mg/kg, IG cotreated with lobeline 5 times per week for 3 weeks; type: organism-based; conditions: in vivo, po, 504 h
# [12] = Toxicity in BALB/c nude mouse xenografted with human Lenvatinib-resistant Huh7/Len cells assessed as changes in body weight at 3 mg/kg, IG administered 5 times per week for 3 weeks; type: organism-based; conditions: in vivo, po, 504 h
# [13] = Toxicity in BALB/c nude mouse PDX model xenografted with human Lenvatinib-resistant HCC/Len cells assessed as changes in body weight at 3 mg/kg, IG cotreated with lobeline 5 times per week for 3 weeks administered 5 times per week for 3 weeks; type: organism-based; conditions: in vivo, po, 504 h
# [14] = tested on: Lenvatinib-resistant Huh7/Len; experiment: Induction of apoptosis in human Lenvatinib-resistant Huh7/Len cells xenografted in BALB/c nude mouse assessed as apoptotic cells in tumor tissue at 3 mg/kg, IG cotreated with lobeline 5 times per week for 3 weeks by immunohistochemistry analysis; type: functional, organism-based
# [15] = tested on: Lenvatinib-resistant Huh7/Len; experiment: Antiproliferative activity against human Lenvatinib-resistant Huh7/Len cells assessed as inhibition of cell viability up to 40 uM after 72 hrs in presence of lobeline by CCK-8 assay; type: functional, cell-based
# [16] = tested on: Lenvatinib-resistant HCC/Len; experiment: Antitumor activity against human Lenvatinib-resistant HCC/Len cells xenografted in BALB/c nude mouse model of PDX assessed as reduction in Ki-67 protein expression tumor tissue at 3 mg/kg, IG cotreated with lobeline 5 times per week for 3 weeks by immunohistochemistry analysis; type: functional, organism-based
# [17] = Toxicity in BALB/c nude mouse PDX model xenografted with human Lenvatinib-resistant HCC/Len cells assessed as changes in organ index at 3 mg/kg, IG administered 5 times per week for 3 weeks; type: organism-based; conditions: in vivo, po, 504 h
# [18] = tested on: Lenvatinib-resistant Huh7/Len; experiment: Antiproliferative activity against human Lenvatinib-resistant Huh7/Len cells assessed as inhibition of clone formation ability at 5 to 10 uM preincubated for 72 hrs and measured after 7 to 10 days by crystal violet staining based assay; type: functional, cell-based; conditions: dose 5-10 µM, time 10-13 day
# [19] = Toxicity in BALB/c nude mouse xenografted with human Lenvatinib-resistant Huh7/Len cells assessed as changes in organ index at 3 mg/kg, IG administered 5 times per week for 3 weeks; type: organism-based; conditions: in vivo, po, 504 h
# [20] = tested on: Lenvatinib-resistant Hep3B/Len; experiment: Antiproliferative activity against human Lenvatinib-resistant Hep3B/Len cells assessed as inhibition of clone formation ability at 5 to 10 uM preincubated for 72 hrs and measured after 7 to 10 days in presence of lobeline by crystal violet staining based assay; type: functional, cell-based; conditions: dose 5-10 µM, time 10-13 day
# [21] = tested on: Lenvatinib-resistant Hep3B/Len; experiment: Inhibition of cell migration in human Lenvatinib-resistant Hep3B/Len cells at 5 uM incubated for 48 hrs in presence of lobeline by transwell assay relative to control; type: functional
# [22] = tested on: Lenvatinib-resistant HCC/Len; experiment: Antitumor activity against human Lenvatinib-resistant HCC/Len cells xenografted in BALB/c nude mouse model of PDX assessed as inhibition of tumor volume at 3 mg/kg, IG cotreated with lobeline 5 times per week for 3 weeks relative to control; type: functional; conditions: po, 504 h
# [23] = tested on: Lenvatinib-resistant Huh7/Len; experiment: Antitumor activity against human Lenvatinib-resistant Huh7/Len cells xenografted in BALB/c nude mouse assessed as inhibition of tumor volume at 3 mg/kg, IG cotreated with lobeline 5 times per week for 3 weeks relative to control; type: functional; conditions: po, 504 h
# [24] = tested on: Lenvatinib-resistant Huh7/Len; experiment: Antitumor activity against human Lenvatinib-resistant Huh7/Len cells xenografted in BALB/c nude mouse assessed as reduction in Ki-67 protein expression tumor tissue at 3 mg/kg, IG cotreated with lobeline 5 times per week for 3 weeks by immunohistochemistry analysis; type: functional; set-up: scale not given: the % may be the effect or the level left
# [25] = Toxicity in BALB/c nude mouse xenografted with human Lenvatinib-resistant Huh7/Len cells assessed as changes in organ index at 3 mg/kg, IG cotreated with lobeline 5 times per week for 3 weeks; type: organism-based; conditions: in vivo, po, 504 h
# [26] = tested on: Lenvatinib-resistant Huh7/Len; experiment: Antitumor activity against human Lenvatinib-resistant Huh7/Len cells xenografted in BALB/c nude mouse assessed as tumor growth inhibition at 3 mg/kg, IG cotreated with lobeline 5 times per week for 3 weeks; type: functional, organism-based
compound,measurement,setting,value
COc1cc2nccc(Oc3ccc(NC(=O)NC4CC4)c(Cl)c3)c2cc1C(N)=O [LENVATINIB],inhibition,[1],inactive
same,inhibition,[2],inactive
same,inhibition at 5 µM,[3],42%
same,TGI,[4],Active
same,Activity,[5],Non-Toxic
same,Activity,[6],Non-Toxic
same,inhibition,[7],inactive
same,Activity,[8],Active
same,inhibition,[9],Active
same,inhibition,[10],inactive
same,Activity,[11],Non-Toxic
same,Activity,[12],Non-Toxic
same,Activity,[13],Non-Toxic
same,Activity,[14],Active
same,inhibition,[15],Active
same,Activity,[16],Active
same,Activity,[17],Non-Toxic
same,inhibition,[18],inactive
same,Activity,[19],Non-Toxic
same,inhibition,[20],inactive
same,inhibition at 5 µM,[21],42%
same,inhibition in vivo at 3 mg/kg,[22],60%
same,inhibition in vivo at 3 mg/kg,[23],68%
same,Activity,[24],30%
same,Activity,[25],Non-Toxic
same,TGI,[26],Active
